Assay results as given in patent publication US20230310559A1, “Use of Amylase or Maltose to Treat or Prevent Neurodegeneration” (St. Jude Children's Research Hospital, Inc., priority 2020, published 2023).
“Also recorded” adds a separate entry of the source.

Experiments:
Type in all cases: cell-based
[1] = test system: human cortical brain organoids; test: Whole-mount immunostaining of human cortical brain organoids (p62, poly-ubiquitin)
Method: Whole-Mount Immunostaining of Human Cortical Brain Organoids. Similar to the above-referenced procedures described for Drosophila tissues, human cortical brain organoids were immunostained with the following modifications: fixation and washes were done with 0.4% TRITON⋅ X-100; fixation was carried out for 50 minutes at room temperature; and organoids were blocked for >1 hour with PBS with 0.4% TRITON X-100 and 5% bovine serum albumin (BSA) before incubation with primary antibodies.
(§1) Drug Treatment of Human Cortical Brain Organoids. An additional 0.5 mL of culture medium was added to reach the final amount of 1 mL with 0, 3, 5, 10, 20, 40, or 80 mg of maltose per mL, or with 10, 20, 40 μL of porcine alpha-Amylase (MP Biomedicals) per mL, as indicated. After culturing at 37° C. for 3 days, the organoids were kept for 7 hours at 41.5° C. for heat shock, or at 37° C. (control). Subsequently, the organoids were collected and snap frozen. The organoids were then processed as described above for the western blot analysis of detergent-soluble and detergent-insoluble fractions.
Whole-mount immunostaining of organoids was carried out following similar procedures as described above for Drosophila brains and retinas, with anti-poly-ubiquitin (FK2; Enzo Life Sciences) and anti-p62/SQSTM1 antibodies (Cell Signaling Technologies). […]

[2] = test system: human cortical brain organoids; test: RNA-sequencing of human cortical brain organoids
Method: RNA-Sequencing of Human Cortical Brain Organoids. RNA sequencing libraries for each sample were prepared with 1 μg total RNA using the Illumina TRUSEQ® RNA Sample Prep v2 Kit per the manufacturer's instructions, and sequencing was completed on the Illumina HiSeq 2000. The 100 bp paired-end reads were trimmed, filtered against quality (Phred-like Q20 or greater) and length (50 bp or longer), and aligned to a human reference sequence GRCh38 (UCSC hg38), using CLC Genomics Workbench v12.0.1 (Qiagen). For gene expression comparisons, the TPM (transcript per million) counts were obtained from the RNA-Seq Analysis tool. A total of 19749 genes with TPM greater than one in at least one sample were in the principal component analysis (PCA) and the gene expression analysis was performed using the non-parametric ANOVA using the Kruskal-Wallis and Dunn's tests on log-transformed TPM counts between three replicates of each experimental group, implemented in Partek Genomics Suite v7.0 software (Partek Inc.).
as §1

[3] = test system: human cortical brain organoids; test: Multielectrode array recording of human cortical brain organoids
Method: Multielectrode Array Recording of Human Cortical Brain Organoids. Spontaneous neuronal activity of cortical organoids was recorded on the Axion Maestro Edge multielectrode array system. Two different methods for plating and recording were optimized from two-month old and three-month old organoids, to ensure maximum contact with electrodes. Method 1 (Two-month old cortical organoids; Maltose treatment): Growth factor reduced-cell culture matrix sold under the tradename […]® (Corning) was diluted 1:3 in chilled media containing BrainPhys and 10% ES-FBS and kept on ice. D60 cortical organoids were first sliced in half using a pair of fine tweezers. Each half was then plated onto one well of a 24-well Cytoview plate (Axion Biosystems), where each well contained a grid of 16 electrodes. After placing the organoid slice onto a dry and empty well using a sterile flat spatula, 15 μL of the chilled and diluted cell culture matrix sold under the tradename […]® was added onto the slice. A P10 tip was used to position the slice to the center of the well over the grid of electrodes. Three such plates were prepared. The plates were incubated at 37° C. for 3 hours for the cell culture matrix to solidify over the organoid slices. After 3 hours, 500 μL of BrainPhys media supplemented with 100× N2 supplement, 50× B27 supplement without Vitamin A, 10 ng/ml BDNF and 10 ng/ml GDNF were added slowly to each well. Every three days, 300 μL media in each well was replaced with fresh media three days and six days after plating. Seven days after plating, the plates were treated with either control or maltose containing media; all treatment conditions were included in each of the four plates. Three days after treatment, spontaneous activity was recorded from each plate. The plates were then subjected to heat shock for 7 hours at 41.5° C. Spontaneous activity in each plate was recorded again after the heat shock. This recording was repeated after 17 hours of recovery and after 43 hours of recovery. Data was analyzed using the Neural Metric tool (Axion Biosystems).

[4] = after heat shock, compared to control-treated organoids

## OC[C@H]1O[C@H](O[C@H]2[C@H](O)[C@@H](O)C(O)O[C@@H]2CO)[C@H](O)[C@@H](O)[C@@H]1O (mixture of isomers) [maltose]
[1]; heat-shocked organoids, compared to controls
  p62 and ubiquitin immunoreactivity: significantly decreased
[1]; organoids, control conditions (no heat shock)
  levels of p62 and poly-ubiquitinated proteins (immunostaining): no change
[2]; human cortical brain organoids
  expression of gene clusters involved in protein quality control (proteasome components, proteases/peptidases): promoted the expression
  gene expression changes induced by heat shock (RNA-seq): prevented some of the gene expression changes
[2]; human cortical organoids
  mRNA and proteins levels of CRYA (a-crystallin): increased
[3]; [4]
  bursts: more bursts
  number of active electrodes: higher number of active electrodes
  number of bursting electrodes: higher number of bursting electrodes
  number of spikes: higher number of spikes
[3]; immediately after and at 17 hours and 43 hours after heat shock
  neuronal activity (number of active electrodes, bursting electrodes, network bursts): significantly preserved; also recorded: higher neuronal activity
[3]; organoids after heat shock
  levels of maltose effective in preserving neuronal activity: ≤ 5 mg/mL
[3]; steady state / pre-heat shock
  neuronal activity (number of active electrodes, bursting electrodes, network bursts): not modulated
